The text below walks through data of US20210355109A1, “CRYSTAL FORM OF MALEATE OF TYROSINE KINASE INHIBITOR AND PREPARATION METHOD THEREFOR” (JIANGSU HENGRUI MEDICINE CO., LTD., priority 2018, published 2021).

Common to all, as to assay type: physicochemical
Data set [1] is described as follows: Influencing-factor stability of I crystal form and amorphous form, purity by HPLC (Agilent1200 DAD). Particulars: for stability after long-term storage (in words): high temperature, high humidity. The text has this:
The stability of the I crystal form of the compound represented by formula (I) was investigated. The purity of the crystal form was detected by Agilent1200 DAD high performance liquid chromatography system, and Waters symmetry C18, (250*4.6 mm, 5 μm) was used as the detection column, mobile phase: sodium dihydrogen phosphate/ACN/H2O, detection wavelength: 261 nm.

Data set [2] is described as follows: Influencing-factor stability of I and IV crystal forms, purity by HPLC (Thermo Ultimate3000DAD). Conditions: for crystal stability (in words): conditions of light, high temperature, and high humidity. The text has this: The stability of the I and IV crystal form of the compound represented by formula (I) was investigated. The purity of the crystal forms was detected by Thermo Ultimate3000DAD high-performance liquid chromatography system, and Waters symmetry C18, (250*4.6 mm, 5 μm) was used as the detection chromatographic column, mobile phase: sodium dihydrogen phosphate/ACN/H2O, detection wavelength: 261 nm.

Data set [3] can be described thus: Solid properties / fluidity of crystal form.

Molecules are shown by their SMILES.

As to `CCOc1cc2ncc(C#N)c(Nc3ccc(OCc4ccccn4)c(Cl)c3)c2cc1NC(=O)/C=C/[C@H]1CCCN1C.O=C(O)/C=C\C(=O)O` [I crystal form], the purity % worked out at 99.56% in data set [1] (40° C., day 0); 99.55% in data set [1] (40° C., day 5); 99.51% in data set [1] (40° C., day 10); 99.43% in data set [1] (40° C., day 30); 99.56% in data set [1] (RH 75%, day 0); 99.53% in data set [1] (RH 75%, day 5). The purity % in data set [1] (RH 75%, day 10) is 99.53%; in data set [1] (RH 75%, day 30), 99.52%; in data set [1] (RH 90%, day 0), 99.56%; in data set [1] (RH 90%, day 5), 99.53%; in data set [1] (RH 90%, day 10), 99.54%; in data set [1] (RH 90%, day 30) it was 99.51%. Further, the purity % in data set [1] (illumination, day 0) is listed as 99.56%; in data set [1] (illumination, day 5) it was 99.35%; in data set [1] (illumination, day 10), 99.29%; in data set [1] (illumination, day 30), 99.00%; in data set [2] (40° C., day 0) it was 99.83%; in data set [2] (40° C., day 5), 99.78%. The purity % in data set [2] (40° C., day 10) came out at 99.77%; in data set [2] (40° C., day 30), 99.69%; in data set [2] (60° C., day 0), 99.83%; in data set [2] (60° C., day 5), 99.64%; in data set [2] (60° C., day 10), 99.51%; in data set [2] (60° C., day 30), 99.24%. Further, the purity % in data set [2] (RH 75%, day 0) is on record as 99.83%; in data set [2] (RH 75%, day 5) it was 99.81%; in data set [2] (RH 75%, day 10) it was 99.81%; in data set [2] (RH 75%, day 30), 99.68%; in data set [2] (RH 90%, day 0), 99.83%; in data set [2] (RH 90%, day 5), 99.81%. In addition, the purity % is on record as 99.82% in data set [2] (RH 90%, day 10); 99.82% in data set [2] (RH 90%, day 30); 99.83% in data set [2] (illumination, day 0); 99.68% in data set [2] (illumination, day 5); 99.59% in data set [2] (illumination, day 10); 99.29% in data set [2] (illumination, day 30). The “stability after long-term storage (in words)” value in data set [1] (illumination) was “good physical and chemical stability”. For the same molecule, in data set [2], the “crystal stability (in words)” value was “good crystal stability”.

For the molecule `CCOc1cc2ncc(C#N)c(Nc3ccc(OCc4ccccn4)c(Cl)c3)c2cc1NC(=O)/C=C/[C@H]1CCCN1C.O=C(O)/C=C\C(=O)O` [II crystal form], in data set [3], the fluidity result was “poor”.

On to `CCOc1cc2ncc(C#N)c(Nc3ccc(OCc4ccccn4)c(Cl)c3)c2cc1NC(=O)/C=C/[C@H]1CCCN1C.O=C(O)/C=C\C(=O)O` [IV crystal form], for which the purity % in data set [2] (40° C., day 0) turned out to be 99.94%; in data set [2] (40° C., day 5) it was 99.92%; in data set [2] (40° C., day 10) it was 99.93%; in data set [2] (40° C., day 30) it was 99.85%; in data set [2] (60° C., day 0) it was 99.94%; in data set [2] (60° C., day 5), 99.83%. Also, the purity % in data set [2] (60° C., day 10) stood at 99.77%; in data set [2] (60° C., day 30), 99.50%; in data set [2] (RH 75%, day 0) it was 99.94%; in data set [2] (RH 75%, day 5) it was 99.93%; in data set [2] (RH 75%, day 10), 99.94%; in data set [2] (RH 75%, day 30), 99.94%. The purity % in data set [2] (RH 90%, day 0) is given as 99.94%; in data set [2] (RH 90%, day 5), 99.93%; in data set [2] (RH 90%, day 10), 99.94%; in data set [2] (RH 90%, day 30) it was 99.93%; in data set [2] (illumination, day 0) it was 99.94%; in data set [2] (illumination, day 5), 99.92%. For the same molecule, the purity % in data set [2] (illumination, day 10) was 99.92%; in data set [2] (illumination, day 30), 99.85%. Further, the “crystal stability (in words)” value in data set [2] is recorded as “good crystal stability”.

Turning to `CCOc1cc2ncc(C#N)c(Nc3ccc(OCc4ccccn4)c(Cl)c3)c2cc1NC(=O)/C=C/[C@H]1CCCN1C.O=C(O)/C=C\C(=O)O` [amorphous, reference compound], the purity % was determined as 99.31% in data set [1] (40° C., day 0); 99.21% in data set [1] (40° C., day 5); 99.13% in data set [1] (40° C., day 10); 98.57% in data set [1] (40° C., day 30); 99.31% in data set [1] (RH 75%, day 0); 99.35% in data set [1] (RH 75%, day 5). The purity % in data set [1] (RH 75%, day 10) is listed as 99.33%; in data set [1] (RH 75%, day 30), 99.09%; in data set [1] (RH 90%, day 0), 99.31%; in data set [1] (RH 90%, day 5) it was 95.76%; in data set [1] (RH 90%, day 10), 94.05%; in data set [1] (RH 90%, day 30) it was 85.09%. In addition, the purity % is listed as 99.31% in data set [1] (illumination, day 0); 98.04% in data set [1] (illumination, day 5); 96.65% in data set [1] (illumination, day 10); 93.48% in data set [1] (illumination, day 30). In addition, in data set [1] (illumination, listed as amorphous form), the “stability after long-term storage (in words)” value is “poor stability”.
